Assay results from PubChem BioAssay (NCI).
Where “and” joins values, the source holds several entries; their conditions need not be identical. Equal values may be shown once.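 Briefly, cells in 96-well plates were exposed to five compound concentrations for 48 h, and endpoints were estimated by linear interpolation. At the GI50, growth is halved. TGI: total growth inhibition.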

Legend:
Assay in all cases: inhibition of tumour cell growth, NCI panel, 48 h
[1] = tested on: OVCAR-5 ovarian
[2] = tested on: UACC-62 melanoma
[3] = tested on: RPMI-8226 leukemia
[4] = tested on: M14 melanoma
[5] = tested on: SF-539 CNS
[6] = tested on: SR leukemia
[7] = tested on: COLO 205 colon
[8] = tested on: LOX IMVI melanoma
[9] = tested on: ACHN renal
[10] = tested on: RXF 393 renal

Structure (SMILES)	TGI [1] [µM]	TGI [2] [µM]	TGI [3] [µM]	TGI [4] [µM]	TGI [5] [µM]	TGI [6] [µM]	TGI [7] [µM]	TGI [8] [µM]	TGI [9] [µM]	TGI [10] [µM]	GI50 [1] [µM]	GI50 [2] [µM]	GI50 [3] [µM]	GI50 [4] [µM]	GI50 [5] [µM]	GI50 [6]	GI50 [7] [µM]	GI50 [8] [µM]	GI50 [9] [µM]	GI50 [10] [µM]
O=C(Oc1cc(=O)c(OC(=O)c2ccccc2)co1)c1ccccc1	> 100	> 100	> 100	> 100	> 100	> 100	> 100	> 100	> 100	> 100	–	–	–	–	–	–	–	–	–	–
Cc1ccc(CC[P+](=O)CCc2ccc(C)nc2)cn1	> 100	> 100	> 100	> 100	> 100	> 100	> 100	> 100	> 100	> 100	–	–	–	–	–	–	–	–	–	–
CNc1ncnc2c1cnn2COCC(O)CO (stereo not given)	> 100	> 100	> 100	> 100	> 100	> 100	> 100	> 100	> 100	> 100	–	–	–	–	–	–	–	–	–	–
C[C@@H](Cl)[C@H]1CCCN(Cc2ccc(Br)cc2)C1	> 12.5	> 12.5	> 12.5	> 12.5	> 12.5	> 12.5	> 12.5	> 12.5	> 12.5	> 12.5	–	–	–	–	–	–	–	–	–	–
CC(O)CCCOC(c1ccccc1)(c1ccccc1)c1ccccc1 (stereo not given)	30.5	27	> 55.6	29.1	31.2	> 57.4	39.3	30.4	27.8	29.2	–	–	–	–	–	–	–	–	–	–
CCOC(=O)c1nc2ccc(C(F)(F)F)cc2nc1Oc1ccc(C#N)cc1	–	36.5	> 100	42.9	36.7	> 100	88.5	> 100	> 100	37.8	–	–	–	–	–	–	–	–	–	–
C[C@@H]1S[C@H](c2ccccc2F)N2Cc3ccccc3N=C12	> 100	54.8	44.4	48.7	> 100	36.9	> 100	38.1	> 100	83.9	–	–	–	–	–	–	–	–	–	–
Cc1cc2c([N+](=O)[O-])cc3c(c2o1)C(=O)C=CC3=O	35.1	28.9	> 100	10.6	31.3	> 76.4	4.88	> 36	3.77	3.54	–	–	–	–	–	–	–	–	–	–
COc1cc(-c2cc(=O)c3cc4c(=O)cc(-c5cc(OC)c(OC)c(OC)c5)oc4cc3o2)cc(OC)c1OC	> 100	> 64.5	> 100	> 100	> 100	> 100	> 100	> 100	> 85.1	26.4	–	–	–	–	–	–	–	–	–	–
Cc1cn(-c2cc(C(=O)Nc3cccc(-n4ccc5c(NC(=O)c6ccccc6)nccc54)c3)cc(C(F)(F)F)c2)cn1	14.6	12.7	4.02	3.29	1.51	–	1.71	2.07	8.7	0.535	0.802	0.366	0.426	0.452	0.332	0.14 µM	0.525	0.379	0.549	0.202
COc1nc2ncc([C@@H](OC(C)=O)[C@@H](COC(C)=O)OC(C)=O)nc2c(=O)[nH]1	> 100	> 100	> 100	> 100	> 100	> 100	> 100	> 100	> 100	> 100	–	–	–	–	–	> 100 µM and 39.4 µM	–	–	–	–
O=C(O)c1cc(-c2ccc3c(O)c(O)ccc3c2)ccc1O	26.2	> 75	49.1	70.6	> 75	42	> 75	34.9	> 75	47.8	–	–	–	–	–	–	–	–	–	–
S=c1[nH]c2ccc(Br)cc2c(=S)s1	60.4	50.7	95.4	95.3	> 100	> 100	32.2	> 100	56.7	> 100	–	–	–	–	–	–	–	–	–	–
O=C1Sc2ccccc2C(=O)N2CSCC12 (stereo not given)	–	> 100	> 100	> 100	> 100	> 100	> 100	> 100	> 100	> 100	–	–	–	–	–	–	–	–	–	–
CCc1c[n+]([O-])c(C)cc1[N+](=O)[O-]	> 100	> 100	> 100	> 100	> 100	> 100	29.6	> 100	47.3	60.9	–	–	–	–	–	–	–	–	–	–
NC(CC1=CS(=O)(=O)c2ccc(Cl)cc21)C(=O)O (stereo not given)	> 100	> 100	> 100	> 100	> 100	> 100	> 100	> 100	> 100	> 100	–	–	–	–	–	–	–	–	–	–
N/C(=N\S(=O)(=O)c1c(C(F)(F)F)cccc1C(F)(F)F)Nc1ccc(Cl)cc1	73.1	50.5	> 100	> 100	> 100	> 100	33.1	48.1	56	> 100	–	–	–	–	–	–	–	–	–	–
O=[N+]([O-])c1ccc(/C=C/c2cc(-c3ccccc3)nc3ccc4ccccc4c23)cc1	> 100	> 100	> 100	> 100	> 100	> 100	> 100	> 100	> 100	> 100	–	–	–	–	–	–	–	–	–	–
C=CCNC(=S)N=Nc1c(O)[nH]c2ccc([N+](=O)[O-])cc12	> 100	> 100	> 100	> 100	> 100	> 100	> 100	> 100	> 100	73.3	–	–	–	–	–	–	–	–	–	–
CC(=O)O/N=C/c1c2ccccc2cc2ccccc12	> 100	> 100	> 100	> 100	> 100	> 100	> 100	> 100	68.5	86.2	–	–	–	–	–	–	–	–	–	–
C=Cc1ccc(C)[n+](C[Si](C)(C)O[Si](C)(C)C[n+]2cc(C=C)ccc2C)c1	> 100	> 100	> 100	> 100	> 100	> 100	> 100	> 100	> 100	> 100	–	–	–	–	–	–	–	–	–	–
CSC(=Nc1ccccc1)N(c1ccccc1)c1nc(=[N+](C)C)ss1	28.6	1.74	3.14	2.5	14.8	8.01	3.88	12.7	16.9	12.7	–	–	–	–	–	–	–	–	–	–
C(=Nc1ccc(-c2nc3ccccc3o2)cc1)c1ccco1	> 100	–	36.9	> 100	> 100	> 100	> 100	> 100	> 100	> 100	–	–	–	–	–	–	–	–	–	–
COC(=O)CCc1cc(OC)c2c(c1)[C@H](C(=O)OC)[C@@H](c1ccc(O)c(OC)c1)O2	> 100	> 100	55.5	> 100	> 100	19.1	> 100	> 100	> 100	> 100	–	–	–	–	–	–	–	–	–	–
COC(=O)c1cc2c(cc1CC1Cc3cc4c(cc3C1)CCC4)CCC2	> 100	–	61.4	> 100	> 100	47.2	> 100	55	> 100	> 100	–	–	–	–	–	–	–	–	–	–
O=C1NCC(NC(=O)C(F)(F)F)c2c(Br)sc(Br)c21 (stereo not given)	> 100	> 100	> 100	> 100	> 100	> 100	> 100	> 100	> 100	> 100	–	–	–	–	–	–	–	–	–	–
O=C1NCCS(=O)(=O)N[C@@H](CC2=CC=CCC2)C(=O)N2CCCC12 (stereo not given in full)	> 100	> 100	> 100	> 100	> 100	> 100	> 100	> 100	> 100	> 100	–	–	–	–	–	–	–	–	–	–
NNC1=N/C(=C\c2ccco2)C(Cl)=N1	> 100	–	41.8	> 100	57.4	72.1	> 100	70.8	> 100	> 100	–	–	–	–	–	–	–	–	–	–
